# Legend:
# Human δ-opioid (DOP) = target: T1, Human δ-opioid (DOP) (Homo sapiens, UniProt P41143); test: Radioligand binding, human δ-opioid (DOP) membranes, FlashPlate, [3H]-Bremazocine; conditions: compound at 10 μM; for A1 radioligand binding inhibition: human δ-opioid (DOP) membranes
# T1 construct: purchased Perkin Elmer Biosignal
# How it was run: (§1)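 Cloned human receptor membranes were coated onto FlashPlate wells and incubated with radioligand and compound (added from a 0.5 mM DMSO daughter plate) for 1 hour at room temperature in the dark. Scintillation counting gave percent inhibition, with DMSO defining total and reference ligand defining non-specific binding.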
# Human κ-Opioid (KOP) = target: T2, Human κ-Opioid (KOP) (Homo sapiens, UniProt P41145); test: Radioligand binding, human κ-opioid (KOP) membranes, filtration, [3H]-Diprenorphine; conditions: compound at 10 μM; for A2 radioligand binding inhibition: human κ-opioid (KOP) membranes
# T2 construct: purchased Perkin Elmer Biosignal
# T2 sequence (P41145 whole entry): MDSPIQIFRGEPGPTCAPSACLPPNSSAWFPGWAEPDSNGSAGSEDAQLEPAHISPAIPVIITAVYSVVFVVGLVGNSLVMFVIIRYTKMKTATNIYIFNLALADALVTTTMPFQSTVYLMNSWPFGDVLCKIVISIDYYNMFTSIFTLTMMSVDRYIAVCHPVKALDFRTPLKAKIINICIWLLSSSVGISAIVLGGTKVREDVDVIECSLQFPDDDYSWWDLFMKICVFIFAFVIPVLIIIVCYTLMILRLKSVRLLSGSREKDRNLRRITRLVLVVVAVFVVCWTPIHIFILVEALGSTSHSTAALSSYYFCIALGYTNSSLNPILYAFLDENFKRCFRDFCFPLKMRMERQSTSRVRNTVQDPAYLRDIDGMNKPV
# How it was run: (§2)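 Filtration binding on cloned human receptor membranes (1 Unit/well), [125I]-Substance P for NK1 and [3H]-Diprenorphine for KOP, 1 h at room temperature. Filters PEI-presoaked, washed with cold 50 mM Tris-HCl pH 7.4, counted by scintillation; percent inhibition calculated, reference ligand defining non-specific binding.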
# Human Melanocortin (MC3) = target: T3, Human Melanocortin (MC3) (Homo sapiens, UniProt P41968); test: Radioligand binding, human melanocortin MC3 membranes, FlashPlate, [125I]-NDP-αMSH; conditions: compound at 10 μM; for A3 radioligand binding inhibition: human melanocortin MC3 membranes
# T3 construct: purchased Perkin Elmer Biosignal
# T3 sequence (P41968 whole entry): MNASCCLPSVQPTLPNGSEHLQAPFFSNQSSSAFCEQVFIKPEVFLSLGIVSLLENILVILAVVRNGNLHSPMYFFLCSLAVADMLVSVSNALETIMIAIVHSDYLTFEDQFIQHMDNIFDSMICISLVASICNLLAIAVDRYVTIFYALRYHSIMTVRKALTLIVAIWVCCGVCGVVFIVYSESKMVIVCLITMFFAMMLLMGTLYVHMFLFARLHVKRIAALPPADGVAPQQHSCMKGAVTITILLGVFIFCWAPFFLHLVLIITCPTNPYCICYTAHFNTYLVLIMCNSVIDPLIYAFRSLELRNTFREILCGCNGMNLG
# How it was run: as §1
# Human Melanocortin (MC4) = target: T4, Human Melanocortin (MC4) (Homo sapiens, UniProt P32245); test: Radioligand binding, human melanocortin MC4 membranes, FlashPlate, [125I]-NDP-αMSH; conditions: compound at 10 μM; for A4 radioligand binding inhibition: human melanocortin MC4 membranes
# T4 construct: purchased Perkin Elmer Biosignal
# T4 sequence (P32245 whole entry): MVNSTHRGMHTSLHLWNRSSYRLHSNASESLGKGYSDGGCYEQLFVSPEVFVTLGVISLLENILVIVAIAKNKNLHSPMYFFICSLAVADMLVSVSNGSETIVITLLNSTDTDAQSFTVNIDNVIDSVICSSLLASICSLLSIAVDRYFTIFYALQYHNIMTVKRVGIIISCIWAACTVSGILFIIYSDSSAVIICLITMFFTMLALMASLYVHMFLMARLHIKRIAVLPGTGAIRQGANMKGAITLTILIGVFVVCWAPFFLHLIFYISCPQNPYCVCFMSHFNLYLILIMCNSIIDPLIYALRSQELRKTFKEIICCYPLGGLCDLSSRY
# How it was run: as §1
# Human melanocortin (MC5) = target: T5, Human melanocortin (MC5) (Homo sapiens, UniProt P33032); test: Radioligand binding, human melanocortin MC5 membranes, FlashPlate, [125I]-NDP-αMSH; conditions: compound at 10 μM; for A5 radioligand binding inhibition: human melanocortin MC5 membranes
# T5 construct: purchased Perkin Elmer Biosignal
# T5 sequence (P33032 whole entry): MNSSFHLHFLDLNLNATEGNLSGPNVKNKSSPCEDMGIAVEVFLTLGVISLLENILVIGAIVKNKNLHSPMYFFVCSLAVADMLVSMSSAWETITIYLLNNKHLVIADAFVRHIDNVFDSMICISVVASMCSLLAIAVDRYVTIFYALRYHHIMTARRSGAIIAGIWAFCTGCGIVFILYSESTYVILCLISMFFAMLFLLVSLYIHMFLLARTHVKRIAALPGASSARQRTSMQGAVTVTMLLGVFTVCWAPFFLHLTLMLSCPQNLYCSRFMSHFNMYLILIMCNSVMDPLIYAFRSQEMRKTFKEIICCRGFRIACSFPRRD
# How it was run: as §1
# [1] = target: T6, Human melanin-concentrating hormone (MCH1) (Homo sapiens, UniProt Q99705); test: Radioligand binding, human melanin-concentrating hormone MCH1 membranes, FlashPlate, [125I]-S36057; conditions: compound at 10 μM; for A6 radioligand binding inhibition: human MCH1 membranes
# T6 construct: purchased Perkin Elmer Biosignal
# T6 sequence (Q99705 whole entry): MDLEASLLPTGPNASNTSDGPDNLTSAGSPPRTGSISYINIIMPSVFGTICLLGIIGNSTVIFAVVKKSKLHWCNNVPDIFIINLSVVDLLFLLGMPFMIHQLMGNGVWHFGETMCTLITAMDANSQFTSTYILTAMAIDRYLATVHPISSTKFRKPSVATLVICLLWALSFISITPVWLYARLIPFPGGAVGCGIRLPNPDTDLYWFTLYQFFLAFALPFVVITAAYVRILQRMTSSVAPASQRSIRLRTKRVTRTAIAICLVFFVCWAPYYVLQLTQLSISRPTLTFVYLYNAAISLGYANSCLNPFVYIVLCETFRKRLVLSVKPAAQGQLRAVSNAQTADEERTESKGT
# How it was run: as §1
# Human μ-opioid (MOP) = target: T7, Human μ-opioid (MOP) (Homo sapiens, UniProt P35372); test: Radioligand binding, human μ-opioid (MOP) membranes, FlashPlate, [3H]-Naloxone; conditions: compound at 10 μM; for A7 radioligand binding inhibition: human μ-opioid (MOP) membranes
# T7 construct: purchased Perkin Elmer Biosignal
# T7 sequence (P35372 whole entry): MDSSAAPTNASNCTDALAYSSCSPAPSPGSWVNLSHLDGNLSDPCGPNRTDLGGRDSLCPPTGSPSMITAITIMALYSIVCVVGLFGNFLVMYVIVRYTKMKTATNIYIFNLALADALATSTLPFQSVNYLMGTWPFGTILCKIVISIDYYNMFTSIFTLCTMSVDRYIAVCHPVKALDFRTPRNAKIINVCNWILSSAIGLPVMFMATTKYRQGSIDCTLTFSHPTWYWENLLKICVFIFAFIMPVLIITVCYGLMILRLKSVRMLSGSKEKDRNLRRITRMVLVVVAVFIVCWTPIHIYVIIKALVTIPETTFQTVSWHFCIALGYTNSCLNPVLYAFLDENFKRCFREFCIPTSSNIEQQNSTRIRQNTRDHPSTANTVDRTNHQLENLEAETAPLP
# How it was run: as §1
# Human neurokinin (NK1) = target: T8, Human neurokinin (NK1) (Homo sapiens, UniProt P25103); test: Radioligand binding, human neurokinin NK1 membranes, filtration, [125I]-Substance P; conditions: compound at 10 μM; for A8 radioligand binding inhibition: human neurokinin NK1 membranes
# T8 construct: purchased Perkin Elmer Biosignal
# T8 sequence (P25103 whole entry): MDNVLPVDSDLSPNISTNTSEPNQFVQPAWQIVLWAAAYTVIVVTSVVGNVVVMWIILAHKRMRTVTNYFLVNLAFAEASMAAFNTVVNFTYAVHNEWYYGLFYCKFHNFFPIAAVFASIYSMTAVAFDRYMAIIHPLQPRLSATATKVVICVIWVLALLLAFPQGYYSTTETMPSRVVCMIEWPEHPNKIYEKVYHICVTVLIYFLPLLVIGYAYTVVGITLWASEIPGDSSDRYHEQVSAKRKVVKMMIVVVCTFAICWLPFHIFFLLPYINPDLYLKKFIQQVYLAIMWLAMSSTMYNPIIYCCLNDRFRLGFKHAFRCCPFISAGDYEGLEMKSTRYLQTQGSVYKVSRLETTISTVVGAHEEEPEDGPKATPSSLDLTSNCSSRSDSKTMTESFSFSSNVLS
# How it was run: as §2
# [2] = target: T9, Human neuropeptide Y (NPY-Y1) (Homo sapiens, UniProt P25929); test: Radioligand binding, human neuropeptide Y NPY-Y1 membranes, FlashPlate, [125I]-PYY; conditions: compound at 10 μM
# T9 construct: purchased Perkin Elmer Biosignal
# T9 sequence (P25929 1-384): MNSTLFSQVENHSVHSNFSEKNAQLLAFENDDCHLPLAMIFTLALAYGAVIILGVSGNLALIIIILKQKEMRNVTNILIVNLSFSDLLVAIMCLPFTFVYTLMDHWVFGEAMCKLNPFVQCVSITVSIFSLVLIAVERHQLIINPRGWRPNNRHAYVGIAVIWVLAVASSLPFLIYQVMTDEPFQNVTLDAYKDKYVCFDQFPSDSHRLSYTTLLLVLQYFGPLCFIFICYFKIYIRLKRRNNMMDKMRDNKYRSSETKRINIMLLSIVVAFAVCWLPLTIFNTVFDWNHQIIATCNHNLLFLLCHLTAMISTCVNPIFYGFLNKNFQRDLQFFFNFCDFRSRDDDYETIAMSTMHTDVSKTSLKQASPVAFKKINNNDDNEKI
# How it was run: as §1
# Human opioid (ORL1) = target: T10, Human opioid (ORL1) (Homo sapiens, UniProt P41146); test: Radioligand binding, human opioid ORL1 membranes, FlashPlate, [125I]-Nociceptin; conditions: compound at 10 μM
# T10 construct: purchased Perkin Elmer Biosignal
# T10 sequence (P41146 whole entry): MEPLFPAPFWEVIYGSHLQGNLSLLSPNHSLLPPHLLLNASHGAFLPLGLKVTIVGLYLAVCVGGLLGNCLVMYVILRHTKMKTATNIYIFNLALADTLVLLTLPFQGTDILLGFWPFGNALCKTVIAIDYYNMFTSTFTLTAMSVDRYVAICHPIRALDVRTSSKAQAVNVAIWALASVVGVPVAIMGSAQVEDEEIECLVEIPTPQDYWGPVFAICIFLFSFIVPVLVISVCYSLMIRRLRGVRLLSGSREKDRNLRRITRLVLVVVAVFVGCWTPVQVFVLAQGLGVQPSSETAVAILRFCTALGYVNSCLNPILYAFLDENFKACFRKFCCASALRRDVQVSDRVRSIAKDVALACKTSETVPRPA
# How it was run: as §1
# Mouse urotensin (mUR2) = target: T11, Mouse urotensin (mUR2) (Mus musculus, UniProt Q8VIH9); test: Radioligand binding, mouse urotensin mUR2 membranes, FlashPlate, [125I]-Urotensin II; conditions: compound at 10 μM; for A11 radioligand binding inhibition: mouse urotensin mUR2 membranes
# T11 construct: purchased Perkin Elmer Biosignal
# T11 sequence (Q8VIH9 1-385): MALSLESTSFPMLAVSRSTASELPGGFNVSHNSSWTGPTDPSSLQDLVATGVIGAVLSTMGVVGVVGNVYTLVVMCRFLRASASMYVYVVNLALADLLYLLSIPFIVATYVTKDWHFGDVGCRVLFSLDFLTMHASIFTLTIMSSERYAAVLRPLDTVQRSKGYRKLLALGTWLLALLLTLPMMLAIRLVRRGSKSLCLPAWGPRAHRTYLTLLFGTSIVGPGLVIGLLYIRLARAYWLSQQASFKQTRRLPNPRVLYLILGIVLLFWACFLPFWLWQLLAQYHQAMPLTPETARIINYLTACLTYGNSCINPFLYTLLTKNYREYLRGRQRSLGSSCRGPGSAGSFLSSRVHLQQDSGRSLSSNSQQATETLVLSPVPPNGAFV
# How it was run: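 Cloned mouse urotensin (mUR2) receptor membranes from Perkin Elmer Biosignal were immobilized in FlashPlate microplates using a proprietary coating. Each well got 19.5 μl buffer, then 0.5 μl of DMSO, reference ligand, or compound. Adding 5 μl of [125I]-Urotensin II, diluted to 5× final concentration in binding buffer, started binding. Plates were sealed with TopSeal-A and incubated 1 hour at room temperature in the dark. Wells were counted for 30 seconds each on a TopCount after a 60-second delay, and percentage inhibition was calculated.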
# T1 sequence (P41143 whole entry): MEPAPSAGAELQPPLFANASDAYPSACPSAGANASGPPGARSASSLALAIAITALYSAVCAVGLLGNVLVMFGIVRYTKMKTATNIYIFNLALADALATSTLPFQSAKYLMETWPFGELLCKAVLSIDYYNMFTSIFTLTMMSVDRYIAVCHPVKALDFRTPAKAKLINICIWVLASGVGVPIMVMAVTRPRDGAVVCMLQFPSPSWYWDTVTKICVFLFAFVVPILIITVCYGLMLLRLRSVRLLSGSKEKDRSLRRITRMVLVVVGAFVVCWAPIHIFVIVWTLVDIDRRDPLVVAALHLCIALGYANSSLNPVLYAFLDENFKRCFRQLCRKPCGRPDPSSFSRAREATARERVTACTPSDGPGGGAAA
smiles,measurement,setting,value
COC[C@H]1OC(OCc2ccc(-c3ccccc3)cc2)[C@H](NC(=O)CCCNC(=N)N)[C@@H](OCc2ccc3ccccc3c2)[C@@H]1O (stereo partly shown) [compound 6],A1 radioligand binding inhibition,Human δ-opioid (DOP),− (“−” indicates less than 50% inhibition at 10 μM)
same,A2 radioligand binding inhibition,Human κ-Opioid (KOP),+ (“+” indicates greater than 50% inhibition at 10 μM)
same,A3 radioligand binding inhibition,Human Melanocortin (MC3),− (“−” indicates less than 50% inhibition at 10 μM)
same,A4 radioligand binding inhibition,Human Melanocortin (MC4),− (“−” indicates less than 50% inhibition at 10 μM)
same,A5 radioligand binding inhibition,Human melanocortin (MC5),+ (“+” indicates greater than 50% inhibition at 10 μM)
same,A6 radioligand binding inhibition,[1],+ (“+” indicates greater than 50% inhibition at 10 μM)
same,A7 radioligand binding inhibition,Human μ-opioid (MOP),+ (“+” indicates greater than 50% inhibition at 10 μM)
same,A8 radioligand binding inhibition,Human neurokinin (NK1),+ (“+” indicates greater than 50% inhibition at 10 μM)
same,A9 radioligand binding inhibition,[2]; human NPY-Y1 membranes,− (“−” indicates less than 50% inhibition at 10 μM)
same,A10 radioligand binding inhibition,Human opioid (ORL1); human ORL1 membranes,− (“−” indicates less than 50% inhibition at 10 μM)
same,A11 radioligand binding inhibition,Mouse urotensin (mUR2),− (“−” indicates less than 50% inhibition at 10 μM)
COCC1OC(OCCc2ccccc2)C(NC(=O)CN)C(OCc2ccc(-c3ccccc3)cc2)C1O (stereo not shown) [compound 224],A1: inhibition of radioligand binding,"Human δ-opioid (DOP); [3H]-Bremazocine, FlashPlate",− (“−” indicates less than 50% inhibition at 10 μM)
same,A2: inhibition of radioligand binding,"Human κ-Opioid (KOP); [3H]-Diprenorphine, filtration",− (“−” indicates less than 50% inhibition at 10 μM)
same,A3: inhibition of radioligand binding,"Human Melanocortin (MC3); [125I]-NDP-αMSH, FlashPlate",− (“−” indicates less than 50% inhibition at 10 μM)
same,A4: inhibition of radioligand binding,"Human Melanocortin (MC4); [125I]-NDP-αMSH, FlashPlate",− (“−” indicates less than 50% inhibition at 10 μM)
same,A5: inhibition of radioligand binding,"Human melanocortin (MC5); [125I]-NDP-αMSH, FlashPlate",− (“−” indicates less than 50% inhibition at 10 μM)
same,A6: inhibition of radioligand binding,"[1]; [125I]-S36057, FlashPlate",− (“−” indicates less than 50% inhibition at 10 μM)
same,A7: inhibition of radioligand binding,"Human μ-opioid (MOP); [3H]-Naloxone, FlashPlate",− (“−” indicates less than 50% inhibition at 10 μM)
same,A8: inhibition of radioligand binding,"Human neurokinin (NK1); [125I]-Substance P, filtration",+ (“+” indicates greater than 50% inhibition at 10 μM)
same,A9: inhibition of radioligand binding,"[2]; [125I]-PYY, FlashPlate",− (“−” indicates less than 50% inhibition at 10 μM)
same,A10: inhibition of radioligand binding,"Human opioid (ORL1); [125I]-Nociceptin, FlashPlate",− (“−” indicates less than 50% inhibition at 10 μM)
same,A11: inhibition of radioligand binding,"Mouse urotensin (mUR2); [125I]-Urotensin II, FlashPlate",− (“−” indicates less than 50% inhibition at 10 μM)
CSC1OC(COCc2cccc(N)c2)C(O)C(OCc2ccc(Cl)cc2)C1NC(=O)Cc1ccccc1 (stereo not shown) [compound 328],"A1: inhibition of radioligand binding, human δ-opioid (DOP)",Human δ-opioid (DOP); [3H]-Bremazocine,− (“−” indicates less than 50% inhibition at 10 μM)
same,"A2: inhibition of radioligand binding, human κ-opioid (KOP)",Human κ-Opioid (KOP); [3H]-Diprenorphine,− (“−” indicates less than 50% inhibition at 10 μM)
same,"A3: inhibition of radioligand binding, human melanocortin (MC3)",Human Melanocortin (MC3); [125I]-NDP-αMSH,− (“−” indicates less than 50% inhibition at 10 μM)
same,"A4: inhibition of radioligand binding, human melanocortin (MC4)",Human Melanocortin (MC4); [125I]-NDP-αMSH,− (“−” indicates less than 50% inhibition at 10 μM)
same,"A5: inhibition of radioligand binding, human melanocortin (MC5)",Human melanocortin (MC5); [125I]-NDP-αMSH,− (“−” indicates less than 50% inhibition at 10 μM)
same,"A6: inhibition of radioligand binding, human melanin-concentrating hormone (MCH1)",[1]; [125I]-S36057,− (“−” indicates less than 50% inhibition at 10 μM)
same,"A7: inhibition of radioligand binding, human μ-opioid (MOP)",Human μ-opioid (MOP); [3H]-Naloxone,− (“−” indicates less than 50% inhibition at 10 μM)
same,"A8: inhibition of radioligand binding, human neurokinin (NK1)",Human neurokinin (NK1); [125I]-Substance P,+ (“+” indicates greater than 50% inhibition at 10 μM)
same,"A9: inhibition of radioligand binding, human neuropeptide Y (NPY-Y1)",[2]; [125I]-PYY,− (“−” indicates less than 50% inhibition at 10 μM)
same,"A10: inhibition of radioligand binding, human opioid (ORL1)",Human opioid (ORL1); [125I]-Nociceptin,− (“−” indicates less than 50% inhibition at 10 μM)
same,"A11: inhibition of radioligand binding, mouse urotensin (mUR2)",Mouse urotensin (mUR2); [125I]-Urotensin II,− (“−” indicates less than 50% inhibition at 10 μM)
CO[C@H]1[C@H](O)[C@@H](COCc2ccc(-c3ccccc3)cc2)OC(OCc2ccccc2)[C@@H]1NC(=O)CCNC(=N)N (stereo partly shown) [compound 83],A1 radioligand binding inhibition,Human δ-opioid (DOP),− (“−” indicates less than 50% inhibition at 10 μM)
same,A2 radioligand binding inhibition,Human κ-Opioid (KOP),− (“−” indicates less than 50% inhibition at 10 μM)
same,A3 radioligand binding inhibition,Human Melanocortin (MC3),− (“−” indicates less than 50% inhibition at 10 μM)
same,A4 radioligand binding inhibition,Human Melanocortin (MC4),− (“−” indicates less than 50% inhibition at 10 μM)
same,A5 radioligand binding inhibition,Human melanocortin (MC5),+ (“+” indicates greater than 50% inhibition at 10 μM)
same,A6 radioligand binding inhibition,[1],− (“−” indicates less than 50% inhibition at 10 μM)
same,A7 radioligand binding inhibition,Human μ-opioid (MOP),+ (“+” indicates greater than 50% inhibition at 10 μM)
same,A8 radioligand binding inhibition,Human neurokinin (NK1),+ (“+” indicates greater than 50% inhibition at 10 μM)
same,A9 radioligand binding inhibition,[2]; human NPY-Y1 membranes,− (“−” indicates less than 50% inhibition at 10 μM)
same,A10 radioligand binding inhibition,Human opioid (ORL1); human ORL1 membranes,− (“−” indicates less than 50% inhibition at 10 μM)
same,A11 radioligand binding inhibition,Mouse urotensin (mUR2),− (“−” indicates less than 50% inhibition at 10 μM)
N=C(N)NCC(=O)NC1C(OCc2ccc(Cl)cc2)OC(COCc2ccccc2)C(O)C1OCc1ccc2ccccc2c1 (stereo not shown) [compound 421],A1: inhibition of radioligand binding,"Human δ-opioid (DOP); [3H]-Bremazocine, human DOP membranes",− (“−” indicates less than 50% inhibition at 10 μM)
same,A2: inhibition of radioligand binding,"Human κ-Opioid (KOP); [3H]-Diprenorphine, human KOP membranes",− (“−” indicates less than 50% inhibition at 10 μM)
same,A3: inhibition of radioligand binding,"Human Melanocortin (MC3); [125I]-NDP-αMSH, human MC3 membranes",+ (“+” indicates greater than 50% inhibition at 10 μM)
same,A4: inhibition of radioligand binding,"Human Melanocortin (MC4); [125I]-NDP-αMSH, human MC4 membranes",+ (“+” indicates greater than 50% inhibition at 10 μM)
same,A5: inhibition of radioligand binding,"Human melanocortin (MC5); [125I]-NDP-αMSH, human MC5 membranes",+ (“+” indicates greater than 50% inhibition at 10 μM)
same,A6: inhibition of radioligand binding,"[1]; [125I]-S36057, human MCH1 membranes",+ (“+” indicates greater than 50% inhibition at 10 μM)
same,A7: inhibition of radioligand binding,"Human μ-opioid (MOP); [3H]-Naloxone, human MOP membranes",− (“−” indicates less than 50% inhibition at 10 μM)
same,A8: inhibition of radioligand binding,"Human neurokinin (NK1); [125I]-Substance P, human NK1 membranes",+ (“+” indicates greater than 50% inhibition at 10 μM)
same,A9: inhibition of radioligand binding,"[2]; [125I]-PYY, human NPY-Y1 membranes",− (“−” indicates less than 50% inhibition at 10 μM)
same,A10: inhibition of radioligand binding,"Human opioid (ORL1); [125I]-Nociceptin, human ORL1 membranes",+ (“+” indicates greater than 50% inhibition at 10 μM)
same,A11: inhibition of radioligand binding,"Mouse urotensin (mUR2); [125I]-Urotensin II, mouse mUR2 membranes",− (“−” indicates less than 50% inhibition at 10 μM)
